Measured values reported in BindingDB's records for PubMed 6292197 (Kyoto University, 1982).
pKi: −log10 of the molar value.

What follows are compounds tested against T1, Prostaglandin D2 receptor (Rattus norvegicus, UniProt Q9R261).
T1 sequence (Q9R261 whole entry): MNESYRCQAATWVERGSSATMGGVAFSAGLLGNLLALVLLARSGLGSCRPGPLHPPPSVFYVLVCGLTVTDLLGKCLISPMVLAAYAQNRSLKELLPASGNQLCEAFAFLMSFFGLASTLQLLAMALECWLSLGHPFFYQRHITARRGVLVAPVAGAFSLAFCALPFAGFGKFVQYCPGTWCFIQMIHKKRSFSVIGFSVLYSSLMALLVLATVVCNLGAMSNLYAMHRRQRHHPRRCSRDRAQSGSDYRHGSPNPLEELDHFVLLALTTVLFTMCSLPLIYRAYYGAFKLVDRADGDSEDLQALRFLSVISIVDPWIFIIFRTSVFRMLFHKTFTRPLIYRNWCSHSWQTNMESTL

pKi	SMILES
5.45	CCCCCC(O)C=CC1C(O)CC2OC(=CCCCC(=O)O)CC21 (stereo unspecified) [NSC_5282411]
5.38	CCCCC[C@H](O)/C=C/[C@H]1OC(O)C[C@H](O)[C@@H]1C/C=C\CCCC(=O)O (stereo partly specified) [THROMBOXANE B2]
6.28	CCCCCC(O)C=CC1C(=O)CC(O)C1CCCCCCC(=O)O (stereo unspecified) [NSC_205449]
< 5.00	CCCCC[C@H](O)C=C[C@H]1C=CC(=O)[C@@H]1C/C=C\CCCC(=O)O [(Z)-7-[(1R,5S)-2-oxidanylidene-5-[(E,3S)-3-oxidanyloct-1-enyl]cyclopent-3-en-1-yl]hept-5-enoic acid]
< 5.00	CCCCCC(O)C=CC1=C(CC=CCCCC(=O)O)C(=O)CC1 (stereo unspecified) [NSC_5280881]
5.53	CCCCC[C@H](O)/C=C/[C@H]1[C@H](O)CC(=O)[C@@H]1C/C=C\CCCC(=O)O [DINOPROSTONE]
6.16	CCCCC[C@H](O)/C=C/C1[C@H](O)C[C@H](O)[C@@H]1C/C=C\CCCC(=O)O (stereo partly drawn) [(Z)-7-[(1R,3R,5S)-3,5-Dihydroxy-2-((E)-(S)-3-hydroxy-oct-1-enyl)-cyclopentyl]-hept-5-enoic acid]
< 5.00	CCCCC[C@H](O)/C=C/[C@@H]1[C@@H](CC(=O)CCCCC(=O)O)[C@@H](O)C[C@H]1O [6-KETO-PROSTAGLANDIN F1ALPHA]
7.72	CCCCCC(O)CC=C1C(=O)C=CC1CC=CCCCC(=O)O (stereo unspecified) [CAS_41598-07-6]
7.57	CCCCCC(O)C=CC1C(=O)CC(O)C1CC=CCCCC(=O)OC (stereo unspecified) [CAS_114676]
5.43	CCCCC[C@@H](O)/C=C/[C@H]1[C@H](O)CC(=O)[C@@H]1CCCCCCC(=O)O
